Reference: patent US4959368A, “Therapeutic agent for neurological diseases” (Mitsui Petrochemical Industries Ltd., priority 1986, dated 1990)

System: mouse neuroblastoma cell line neuro-2a
Assay: Activity on neuro-2a, cells with outgrown neurites
Format: cell-based
Experimental: In order to examine the effects of the test compounds, the following method was also employed.
Mouse neuro 2a cells in the logarithmic growth period in the Dulbecco's modified Eagle's medium (DMEM) containing 10% FCS was seeded in a 48-well plate so that the number of cells was 1,000 cells/well, and cultured for one day in 0.25 ml of the culture fluid in each well. The culture medium was then replaced by a medium containing each of the test compounds and FCS, and the cells were further cultured for 24 hours. Then, a 4% aqueous glutaraldehyde solution in the same amount as the medium (0.25 ml) was added, and the culture fluid was left to stand at room temperature for 2 hours to fix the cells. After washing with water, a 0.05% aqueous solution of methylene blue was added to stain the cells. Under a microscope, the number of cells containing outgrown neurites (cells having at least one neutrite with a length at least two times as large as the long diameter of the cell) was counted visually, and the proportion of these cells in the entire cells was calculated. The well was observed over 5 or more visual fields (at least 2% of the entire surface area of the well) continuous to the left and right from a mark put at the center of the well, and more than 200 cells was counted. One drug compound was used in 6 different concentrations at most, and three runs were conducted for each concentration.

[1] = Table 3 Run No. 9, 0.1 mM, control 2.0 ± 1.0
[2] = Table 3 Run No. 8, 0.3 mM, control 3.7 ± 0.4
[3] = Table 3 Run No. 8, 0.5 mM, control 3.7 ± 0.4
[4] = Table 3 Run No. 8, 1 mM, control 3.7 ± 0.4
[5] = Table 3 second Run No. 5, 1 mM, control 4.5 ± 0.3
[6] = Table 3 Run No. 10, 0.1 mM, control 1.7 ± 0.7
[7] = Table 3 Run No. 2, 1 mM, control 1.9 ± 0.9
[8] = Table 3 Run No. 4, 0.1 mM, control 3.1 ± 0.2
[9] = Table 3 Run No. 4, 0.5 mM, control 3.1 ± 0.2
[10] = Table 3 Run No. 4, 1 mM, control 3.1 ± 0.2
[11] = Table 3 Run No. 4, 0.3 mM, control 3.1 ± 0.2
[12] = Table 3 Run No. 6, 0.1 mM, control 4.4 ± 0.9
[13] = Table 3 Run No. 2, 0.3 mM, control 1.9 ± 0.9

CC(C)(C)N1Cc2nc(N3CCNCC3)ncc2C1=O [Compound 642]
Cells having neurites with a length at least twice the long diameter of cell/total number of cells [1]: 9.5 ± 1.2%
Cells having neurites with a length at least twice the long diameter of cell/total number of cells (Table 3 Run No. 9, 0.3 mM, control 2.0 ± 1.0): 14.4 ± 4.0%

CCOC(=O)CC1C(=O)N(C)c2nc(N3CCNCC3)ncc21 (centres unmarked) [Compound 674]
Cells having neurites with a length at least twice the long diameter of cell/total number of cells (Table 3 Run No. 11, 0.03 mM, control 2.5 ± 0.6): 4.2 ± 0.8%
Cells having neurites with a length at least twice the long diameter of cell/total number of cells (Table 3 Run No. 11, 0.1 mM, control 2.5 ± 0.6): 6.7 ± 1.3%
Cells having neurites with a length at least twice the long diameter of cell/total number of cells (Table 3 Run No. 11, 0.3 mM, control 2.5 ± 0.6): 4.5 ± 1.9%

CN1C(=O)Cc2cnc(N3CCNCC3)nc21 [Compound 414]
Cells having neurites with a length at least twice the long diameter of cell/total number of cells [2]: 15.0 ± 4.0%
Cells having neurites with a length at least twice the long diameter of cell/total number of cells [3]: 33.4 ± 2.6%
Cells having neurites with a length at least twice the long diameter of cell/total number of cells [4]: 43.6 ± 7.8%

Cn1ccc2nc(N3CCNCC3)ncc2c1=O [Compound 707]
Cells having neurites with a length at least twice the long diameter of cell/total number of cells (Table 3 Run No. 7, 0.3 mM, control 2.5 ± 0.7): 7.3 ± 1.0%
Cells having neurites with a length at least twice the long diameter of cell/total number of cells (Table 3 Run No. 7, 0.5 mM, control 2.5 ± 0.7): 10.5 ± 1.5%
Cells having neurites with a length at least twice the long diameter of cell/total number of cells (Table 3 Run No. 7, 1 mM, control 2.5 ± 0.7): 21.4 ± 1.7%
Cells having neurites with a length at least twice the long diameter of cell/total number of cells (Table 3 second Run No. 5, 0.01 mM, control 4.5 ± 0.3): 6.1 ± 0.5%
Cells having neurites with a length at least twice the long diameter of cell/total number of cells [5]: 36.1 ± 3.7%

CN1C(=O)Cc2cnc(N3CCNCC3)nc21 [Compound 410]
Cells having neurites with a length at least twice the long diameter of cell/total number of cells [2]: 22.4 ± 2.9%
Cells having neurites with a length at least twice the long diameter of cell/total number of cells [3]: 36.7 ± 6.1%
Cells having neurites with a length at least twice the long diameter of cell/total number of cells [4]: 15.5 ± 0.3%

CN1C(=O)Cc2cnc(N3CCNCC3)nc21.O=P(O)(O)O [Compound 418, 5,6-Dihydro-7-methyl-6-oxo-2-piperazino(7H)pyrrolo[2,3-d]pyrimidine phosphate]
Cells having neurites with a length at least twice the long diameter of cell/total number of cells [2]: 16.6 ± 1.1%
Cells having neurites with a length at least twice the long diameter of cell/total number of cells [3]: 29.6 ± 3.3%
Cells having neurites with a length at least twice the long diameter of cell/total number of cells [4]: 47.4 ± 1.6%

COC(=O)c1cnc(N2CCNCC2)nc1NC(C)C [Compound 116]
Cells having neurites with a length at least twice the long diameter of cell/total number of cells (Table 3 Run No. 10, 0.01 mM, control 1.7 ± 0.7): 7.5 ± 2.2%
Cells having neurites with a length at least twice the long diameter of cell/total number of cells (Table 3 Run No. 10, 0.03 mM, control 1.7 ± 0.7): 11.6 ± 2.0%
Cells having neurites with a length at least twice the long diameter of cell/total number of cells [6]: 10.6 ± 4.5%

Cc1nc(N2CCNCC2)nc2c1CC(=O)N2C.Cl [Compound 466, 5,6-Dihydro-4,7-dimethyl-6-oxo-2-piperazino(7H)pyrrolo[2,3-d]pyrimidine hydrochloride]
Cells having neurites with a length at least twice the long diameter of cell/total number of cells (Table 3 second Run No. 5, 0.1 mM, control 4.5 ± 0.3): 5.4 ± 0.3%
Cells having neurites with a length at least twice the long diameter of cell/total number of cells [5]: 13.1 ± 1.4%

NC(=O)CN1Cc2nc(N3CCNCC3)ncc2C1=O [Compound 652]
Cells having neurites with a length at least twice the long diameter of cell/total number of cells [7]: 4.5 ± 0.3%

COCCN1C(=O)Cc2cnc(N3CCNCC3)nc21.O=C(O)/C=C\C(=O)O [Compound 430, 5,6-Dihydro-7-(2-methoxyethyl)-6-oxo-2-piperazino(7H)pyrrolo[2,3-d]pyrimidine maleate]
Cells having neurites with a length at least twice the long diameter of cell/total number of cells [8]: 7.2 ± 1.9%
Cells having neurites with a length at least twice the long diameter of cell/total number of cells [9]: 11.7 ± 1.8%
Cells having neurites with a length at least twice the long diameter of cell/total number of cells [10]: 13.4 ± 0.4%
Cells having neurites with a length at least twice the long diameter of cell/total number of cells (Table 3 second Run No. 5, 0.3 mM, control 4.5 ± 0.3): 7.6 ± 0.8%
Cells having neurites with a length at least twice the long diameter of cell/total number of cells [5]: 9.0 ± 0.8%

CN1C(=O)Cc2cnc(N3CCNCC3)nc21 [Compound 412]
Cells having neurites with a length at least twice the long diameter of cell/total number of cells (Table 3 Run No. 3, 0.3 mM, control 3.9 ± 0.3): 16.6 ± 2.6%
Cells having neurites with a length at least twice the long diameter of cell/total number of cells (Table 3 Run No. 3, 1 mM, control 3.9 ± 0.3): 44.2 ± 1.4%
Cells having neurites with a length at least twice the long diameter of cell/total number of cells [11]: 15.8 ± 2.3%
Cells having neurites with a length at least twice the long diameter of cell/total number of cells [9]: 27.9 ± 2.9%
Cells having neurites with a length at least twice the long diameter of cell/total number of cells [10]: 47.8 ± 0.4%
Cells having neurites with a length at least twice the long diameter of cell/total number of cells [2]: 18.4 ± 0.5%
Cells having neurites with a length at least twice the long diameter of cell/total number of cells [3]: 49.5 ± 3.5%
Cells having neurites with a length at least twice the long diameter of cell/total number of cells [4]: 32.6 ± 1.3%

CN1C(=O)Cc2cnc(N3CCNCC3)nc21 [Compound 416]
Cells having neurites with a length at least twice the long diameter of cell/total number of cells (Table 3 Run No. 8, 0.1 mM, control 3.7 ± 0.4): 11.7 ± 3.3%
Cells having neurites with a length at least twice the long diameter of cell/total number of cells [2]: 40.4 ± 9.2%
Cells having neurites with a length at least twice the long diameter of cell/total number of cells [3]: 48.7 ± 5.7%

Cl.c1nc(N2CCNCC2)nc2c1CCC2 [Compound 202, 6,7-Dihydro-2-piperazino(5H)cyclopentapyrimidine hydrochloride]
Cells having neurites with a length at least twice the long diameter of cell/total number of cells [12]: 5.6 ± 1.1%

CCC(C)N1Cc2nc(N3CCNCC3)ncc2C1=O (centres unmarked) [Compound 638]
Cells having neurites with a length at least twice the long diameter of cell/total number of cells [1]: 6.5 ± 0.2%

CN1C(=O)Cc2cnc(N3CCN(Cc4ccccc4)CC3)nc21 [Compound 434, 2-(4-Benzylpiperazino)-5,6-dihydro-7-methyl-6-oxo(7H)pyrrolo[2,3-d]pyrimidine 2-naphthalenesulfonate]
Cells having neurites with a length at least twice the long diameter of cell/total number of cells [1]: 6.0 ± 1.2%

CCN(CC)C(=O)c1cnc(N2CCNCC2)nc1NC(C)C [Compound 108]
Cells having neurites with a length at least twice the long diameter of cell/total number of cells [13]: 4.6 ± 1.2%
Cells having neurites with a length at least twice the long diameter of cell/total number of cells [7]: 6.9 ± 1.6%

Cl.c1nc(N2CCNCC2)nc2c1CCO2 [Compound 902, 5,6-Dihydro-2-piperazinofuro[2,3-d]pyrimidine hydrochloride]
Cells having neurites with a length at least twice the long diameter of cell/total number of cells (Table 3 Run No. 6, 0.01 mM, control 4.4 ± 0.9): 6.9 ± 0.8%
Cells having neurites with a length at least twice the long diameter of cell/total number of cells (Table 3 Run No. 6, 0.03 mM, control 4.4 ± 0.9): 6.7 ± 0.9%
Cells having neurites with a length at least twice the long diameter of cell/total number of cells (Table 3 Run No. 6, 1 mM, control 4.4 ± 0.9): 6.7 ± 1.0%

CC1Cc2nc(N3CCNCC3)ncc2C(=O)O1.Cl (centres unmarked) [Compound 918, 7,8-Dihydro-7-methyl-5-oxo-2-piperazino(5H)pyrano[4,3-d]pyrimidine hydrochloride]
Cells having neurites with a length at least twice the long diameter of cell/total number of cells [8]: 7.4 ± 2.5%
Cells having neurites with a length at least twice the long diameter of cell/total number of cells [10]: 12.5 ± 0.9%

CCCN(CCC)C(=O)c1cnc(N2CCNCC2)nc1NCC [Compound 104]
Cells having neurites with a length at least twice the long diameter of cell/total number of cells [13]: 10.6 ± 4.6%
Cells having neurites with a length at least twice the long diameter of cell/total number of cells [7]: 5.3 ± 1.8%

Cc1cc2c(C)nc(N3CCNCC3)nc2o1.Cl [Compound 906, 4,6-Dimethyl-2-piperazinofuro[2,3-d]pyrimidine hydrochloride]
Cells having neurites with a length at least twice the long diameter of cell/total number of cells [12]: 7.4 ± 1.0%
Cells having neurites with a length at least twice the long diameter of cell/total number of cells (Table 3 Run No. 6, 0.3 mM, control 4.4 ± 0.9): 7.0 ± 0.6%

CC(=O)N1CCN(c2ncc3c(n2)N(C)C(=O)C3)CC1 [Compound 440, 2-(4-Acetylpiperazino)-5,6-dihydro-7-methyl-6-oxo(7H)pyrrolo[2,3-d]pyrimidine]
Cells having neurites with a length at least twice the long diameter of cell/total number of cells (Table 3 Run No. 9, 1 mM, control 2.0 ± 1.0): 5.8 ± 1.0%
Cells having neurites with a length at least twice the long diameter of cell/total number of cells (Table 3 Run No. 9, 3 mM, control 2.0 ± 1.0): 12.9 ± 4.1%

CCCC(C)N1Cc2nc(N3CCNCC3)ncc2C1=O (centres unmarked) [Compound 646]
Cells having neurites with a length at least twice the long diameter of cell/total number of cells [6]: 7.3 ± 0.2%

CCN(CC)C(=O)c1cnc(N2CCNCC2)nc1OC [Compound 112]
Cells having neurites with a length at least twice the long diameter of cell/total number of cells [7]: 3.5 ± 0.5%

Cc1nc(N2CCNCC2)nc2c1CC(=O)N2C [Compound 464, 5,6-Dihydro-4,7-dimethyl-6-oxo-2-piperazino(7H)pyrrolo[2,3-d]pyrimidine]
Cells having neurites with a length at least twice the long diameter of cell/total number of cells [8]: 7.1 ± 1.6%
Cells having neurites with a length at least twice the long diameter of cell/total number of cells [11]: 10.1 ± 1.9%
Cells having neurites with a length at least twice the long diameter of cell/total number of cells [10]: 13.1 ± 1.1%
